Key:
Settings in all cases: 72 h
Calu-3 [1] = experiment: cell viability relative to DMSO; higher = less toxic
HepG2 [2] = experiment: as above
U2OS [3] = experiment: as above
Vero E6 [4] = experiment: as above
U2OS [5] = experiment: relative viability EC50 (midpoint between 100% and the lowest measured viability); higher = less toxic
Vero E6 [6] = experiment: as above
Calu-3 [7] = experiment: drug sensitivity score (DSS) for viability; higher = more toxic; extreme values may be limits of the assay
HepG2 [8] = experiment: as above
U2OS [9] = experiment: as above
Vero E6 [10] = experiment: as above
Caco-2 [11] = experiment: cell viability relative to DMSO; higher = less toxic
HepG2 [12] = experiment: relative viability EC50 (midpoint between 100% and the lowest measured viability); higher = less toxic
Caco-2 [13] = experiment: drug sensitivity score (DSS) for viability; higher = more toxic; extreme values may be limits of the assay
Caco-2 [14] = experiment: relative viability EC50 (midpoint between 100% and the lowest measured viability); higher = less toxic
Calu-3 [15] = experiment: as above

| Structure (SMILES) | cell viability (Calu-3 [1]; 1 nM) [%] | cell viability (Calu-3 [1]; 10 nM) [%] | cell viability (Calu-3 [1]; 100 nM) [%] | cell viability (Calu-3 [1]; 1000 nM) [%] | cell viability (Calu-3 [1]; 10000 nM) [%] | cell viability (HepG2 [2]; 1 nM) [%] | cell viability (HepG2 [2]; 10 nM) [%] | cell viability (HepG2 [2]; 100 nM) [%] | cell viability (HepG2 [2]; 1000 nM) [%] | cell viability (HepG2 [2]; 10000 nM) [%] | cell viability (U2OS [3]; 1 nM) [%] | cell viability (U2OS [3]; 10 nM) [%] | cell viability (U2OS [3]; 100 nM) [%] | cell viability (U2OS [3]; 1000 nM) [%] | cell viability (U2OS [3]; 10000 nM) [%] | cell viability (Vero E6 [4]; 1 nM) [%] | cell viability (Vero E6 [4]; 10 nM) [%] | cell viability (Vero E6 [4]; 100 nM) [%] | cell viability (Vero E6 [4]; 1000 nM) [%] | cell viability (Vero E6 [4]; 10000 nM) [%] | relative viability EC50 (U2OS [5]) [µM] | relative viability EC50 (Vero E6 [6]) [µM] | drug sensitivity score (Calu-3 [7]) | drug sensitivity score (HepG2 [8]) | drug sensitivity score (U2OS [9]) | drug sensitivity score (Vero E6 [10]) | cell viability (Caco-2 [11]; 1 nM) [%] | cell viability (Caco-2 [11]; 10 nM) [%] | cell viability (Caco-2 [11]; 100 nM) [%] | cell viability (Caco-2 [11]; 1000 nM) [%] | cell viability (Caco-2 [11]; 10000 nM) [%] | relative viability EC50 (HepG2 [12]) [µM] | drug sensitivity score (Caco-2 [13]) | relative viability EC50 (Caco-2 [14]) [µM] | relative viability EC50 (Calu-3 [15]) [µM] |
| --- | --- | --- | --- | --- | --- | --- | --- | --- | --- | --- | --- | --- | --- | --- | --- | --- | --- | --- | --- | --- | --- | --- | --- | --- | --- | --- | --- | --- | --- | --- | --- | --- | --- | --- | --- |
| CC(C)[C@@H](C(=O)Nc1nccs1)c1ccc(Cl)cc1 [4-CMTB] | 111 | 107 | 102 | 97.8 | 68.1 | 95.7 | 95.4 | 94.1 | 99.7 | 63.3 | 104 | 108 | 106 | 102 | 85.5 | 107 | 107 | 98 | 96.4 | 92.9 | > 10 | > 10 | 1.8 | 1.8 | 0.1 | 0 | – | – | – | – | – | – | – | – | – |
| Nc1ccc(C(=O)Oc2ccccc2)c(O)c1 [phenyl-aminosalicylate] | – | – | – | – | – | – | – | – | – | – | – | – | – | – | – | – | – | – | – | – | – | – | 0 | 1 | 0 | 0 | – | – | – | – | – | – | – | – | – |
| Cc1ccc(-c2nn(C(C)(C)CNC(=O)c3ncccc3C)c3ncnc(N)c23)cc1 [WEHI-345-analog] | 99.6 | 110 | 86 | 97.8 | 52.2 | 109 | 97.5 | 99.7 | 94.6 | 34.2 | 98.3 | 108 | 94.3 | 104 | 38.4 | 100 | 97.7 | 99.8 | 95.7 | 37.2 | 3.51 | 2.62 | 2.8 | 4.5 | 3 | 4.1 | 96.3 | 100 | 95.5 | 101 | 58.9 | 2.49 | 2 | – | – |
| Nc1nc(=O)c(Br)c(-c2ccccc2)[nH]1 [bropirimine] | – | – | – | – | – | 102 | 118 | 92.4 | 103 | 114 | 92.8 | 95.1 | 102 | 95.7 | 104 | 94.8 | 98.3 | 92.4 | 98.7 | 102 | > 10 | > 10 | – | 0 | 0 | 0 | 96.6 | 91.4 | 102 | 87.8 | 112 | > 10 | 0 | > 10 | – |
| O=S(=O)(c1cccc2c(O)nccc12)N1CCCNCC1 [hydroxyfasudil] | 91.6 | 94.1 | 110 | 119 | 136 | 96.6 | 97.7 | – | 97.7 | 98.3 | 95.4 | 101 | 96.4 | – | 102 | 95.7 | 95.8 | 96.4 | 90.3 | 107 | – | – | 0 | 0 | 0 | 0 | 98.7 | 99.3 | 94 | 107 | 109 | – | 0 | – | – |
| COC(=O)N[C@@H](C)CNc1nccc(-c2cn(C(C)C)nc2-c2cc(Cl)cc(NS(C)(=O)=O)c2F)n1 [Encorafenib (LGX818)] | – | – | – | – | – | 96.2 | 91.7 | 79.7 | 38.4 | 11.1 | 101 | 104 | 106 | 94.2 | 82 | 106 | 106 | 109 | 116 | 71.6 | > 10 | – | – | 14.2 | 1.1 | 0.7 | 103 | 89.5 | 97 | 88.4 | 69.5 | 0.37 | 2.4 | – | – |
| CCCc1cc(=O)[nH]c(=S)[nH]1 [propylthiouracil] | – | – | – | – | – | – | – | – | – | – | – | – | – | – | – | – | – | – | – | – | – | – | 0 | – | 0 | 0 | – | – | – | – | – | – | – | – | – |
| CCCn1c(=O)c2[nH]c(C3CCCC3)nc2n(CCC)c1=O [DPCPX] | – | – | – | – | – | 102 | 105 | 99.8 | 101 | 91.5 | 100 | 102 | 99.8 | 96.6 | 100 | 106 | 107 | 98.2 | 99.8 | 89.1 | > 10 | > 10 | – | 0 | 0 | 0 | 105 | 106 | 106 | 106 | 93.3 | > 10 | 0 | > 10 | – |
| CC(COc1ccccc1)NC(C)C(O)c1ccc(O)cc1 (stereo not given) [isoxsuprine] | – | – | – | – | – | – | – | – | – | – | – | – | – | – | – | – | – | – | – | – | – | – | 0 | 0 | – | 0 | – | – | – | – | – | – | – | – | – |
| CSc1nc2ccc3nc(NC(=O)C(c4ccccc4)c4ccccc4)sc3c2s1 [Gue-1654] | – | – | – | – | – | 96.4 | 106 | 98.3 | 102 | 92.6 | 100 | 95.9 | 98.8 | 97.1 | 98.2 | 104 | 107 | 99.6 | 97.8 | 105 | > 10 | > 10 | – | 0 | 0 | 0 | 100 | 100 | 94.7 | 93.6 | 80.5 | > 10 | 0.7 | > 10 | – |
| Oc1ccc(CC2NCCc3cc(O)c(O)cc32)cc1 (stereo not given) [higenamine] | – | – | – | – | – | 105 | 97.1 | 99.3 | 83.3 | 32.6 | 98.1 | 103 | 97.5 | 98.1 | 36.6 | 104 | 99.2 | 102 | 100 | 48.6 | 2.95 | 3.22 | – | 6.3 | 3.7 | 2.7 | 97.6 | 102 | 94.9 | 86.2 | 59.4 | 1.56 | 3.5 | – | – |
| COC(=O)[C@@H]1CC2=CC(=O)CC[C@]2(C)[C@@]23O[C@@H]2C[C@@]2(C)[C@@H](CC[C@@]24CCC(=O)O4)[C@H]13 [eplerenone] | – | – | – | – | – | – | – | – | – | – | – | – | – | – | – | 99.7 | 100 | 99.1 | 101 | 95 | – | > 10 | – | – | – | 0 | 98.4 | 101 | 85.8 | 92.8 | 98.4 | – | 0 | > 10 | – |
| O=c1oc2ccccc2c(O)c1Cc1c(O)c2ccccc2oc1=O [dicoumarol] | – | – | – | – | – | – | – | – | – | – | – | – | – | – | – | – | – | – | – | – | – | – | 0 | – | 0 | 0 | – | – | – | – | – | – | – | – | – |
| COC(=O)Nc1nc2cc(SC(C)C)ccc2[nH]1 [methiazole] | 95.5 | 97 | 103 | 81.6 | 64.6 | 95 | 105 | 95.7 | 83.4 | 35 | 101 | 97.6 | 99.9 | 86.4 | 41.1 | 91.9 | 103 | 92.6 | 86.6 | 47.5 | 1.62 | 1.61 | 4 | 6.1 | 5.4 | 4.7 | 104 | 100 | 99.1 | 86.8 | 49 | 1.53 | 4.8 | 1.52 | – |
| CCc1cc(-c2[nH]nc(C)c2-c2ccc3c(c2)OCCO3)c(O)cc1O | 93.2 | 94.6 | 101 | 89.7 | 58.8 | 94.7 | 91.1 | 104 | 81.1 | 11.1 | 99.2 | 94.9 | 98.3 | 99.7 | 65.6 | 99.4 | 104 | 101 | 95.9 | 67.9 | – | – | 3.7 | 8 | 1.6 | 2.1 | 103 | 92 | 98 | 89.7 | 53 | 1.68 | 4.1 | – | – |
| COC(=O)Nc1nc2cc(C(=O)c3ccccc3)ccc2[nH]1 [mebendazole] | 81.1 | 107 | 95 | 84.6 | 61.3 | 97.5 | 109 | 102 | 44.3 | 40.9 | 95.5 | 102 | 95.5 | 66 | 41.2 | 111 | 97.6 | 102 | 84.7 | 35.6 | 0.774 | 1.59 | 3.4 | 10.1 | 7.3 | 5.9 | 91.6 | 104 | 88.4 | 67.2 | 55.6 | 0.387 | 7 | – | – |
| CCC(CC)Nc1nc(C)c(-c2ccc(OC(F)(F)F)cc2OC)nc1OC [NGD-98-2] | – | – | – | – | – | 102 | 98.8 | 90.8 | 100 | 96.3 | 98.7 | 98.5 | 95.1 | 99.3 | 97.7 | 99.9 | 104 | 100 | 99.1 | 99.2 | > 10 | > 10 | – | 0 | 0 | 0 | 94.8 | 92.9 | 96.3 | 90.9 | 81.6 | > 10 | 0.6 | > 10 | – |
| CC(C)(NS(=O)(=O)c1ccc(Oc2ccc(F)cc2)cc1)C(=O)NO | 106 | 96.3 | 98.9 | 97.9 | 94.3 | 110 | 111 | 98.3 | 110 | 80.7 | – | – | – | – | – | – | – | – | – | – | – | – | 0 | 0.3 | – | – | – | – | – | – | – | > 10 | – | – | > 10 |
| CN[C@@H](C)[C@H](O)c1ccccc1 [ephedrine] | – | – | – | – | – | – | – | – | – | – | – | – | – | – | – | – | – | – | – | – | – | – | – | 0 | 0 | 0 | – | – | – | – | – | – | – | – | – |
| O=C(NOCC1CC1)c1ccc(F)c(F)c1Nc1ccc(I)cc1Cl | – | – | – | – | – | 96.9 | 89.3 | 84.2 | 31.6 | 19.4 | 101 | 97.1 | 94.9 | 91.4 | 85.3 | 94.5 | 98.5 | 84.4 | 65.9 | 50.6 | > 10 | – | – | 14.6 | 0.4 | 7.9 | 97.4 | 94.6 | 89.3 | 75.3 | 65.6 | 0.277 | 5.1 | – | – |

— the supplement of paper PMC13380429
